Reference: PubChem BioAssay (NCI)
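Five concentrations, 48 hours, 96-well plates. GI50 is the concentration that inhibits growth by half. TGI: concentration producing complete growth inhibition.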

Legend:
Assay in all cases: NCI anticancer screen, dose series, 48 h
[1] = test system: KM12 colon
[2] = test system: SNB-19 CNS
[3] = test system: SK-MEL-28 melanoma
[4] = test system: LOX IMVI melanoma
[5] = test system: NCI-H460 lung
[6] = test system: M14 melanoma
[7] = test system: BT-549 breast
[8] = test system: EKVX NSCLC
[9] = test system: NCI-H226 lung
[10] = test system: SF-295 CNS

SMILES	GI50 [1]	TGI [1]	GI50 [2]	TGI [2]	GI50 [3]	TGI [3]	GI50 [4]	TGI [4]	GI50 [5]	TGI [5]	GI50 [6]	TGI [6]	GI50 [7]	TGI [7]	GI50 [8]	TGI [8]	GI50 [9]	TGI [9]	GI50 [10]	TGI [10]
COC(=O)Nc1nc2ccc(Oc3ccc(NC(=O)Nc4ccccc4)cc3)cc2[nH]1	0.106 µM	4.87 µM	0.183 µM	> 17 µM	0.348 µM	6.4 µM	0.178 µM	> 9.6 µM	0.129 µM	2.71 µM	0.168 µM	2.6 µM	1.61 µM	11.8 µM	2.44 µM	> 25 µM	0.18 µM	5.21 µM	0.121 µM	2.23 µM
COc1ccc2c(c1)C=C([N+](=O)[O-])C(C1OC(C)(C)OC1C1COC(C)(C)O1)O2 (centres undefined)	–	4.31 µM	–	25.7 µM	–	3.83 µM	–	2.92 µM	–	13.6 µM	–	6.15 µM	–	12.6 µM	–	21.2 µM	–	21.6 µM	–	22.2 µM
COc1cc(OC)c(/C=C/C(=O)c2c(OC)cccc2OC)c(OC)c1	0.59 µM	> 26 µM	0.775 µM	> 100 µM	1.01 µM	> 21.3 µM	0.566 µM	> 100 µM	0.393 µM	> 20.3 µM	0.441 µM	2.63 µM	0.3 µM	1.84 µM	4.03 µM	> 100 µM	1.99 µM	> 100 µM	0.395 µM	–
O=C(CCl)Nc1ccc(Cl)cc1	8.06 µM	21 µM	10.3 µM	25.6 µM	9.31 µM	22.1 µM	1.56 µM	4.23 µM	3.86 µM	16.5 µM	4.45 µM	17 µM	2.78 µM	9.92 µM	6.93 µM	26.3 µM	4.17 µM	15.7 µM	3.45 µM	13.3 µM
CN/N=C(/CCN1CCCC1)CC(c1ccccc1)c1c(O)c2ccccc2oc1=O (centres undefined)	–	> 100 µM	–	> 100 µM	–	> 100 µM	–	> 100 µM	–	> 100 µM	–	> 100 µM	–	> 100 µM	–	> 100 µM	–	> 100 µM	–	> 100 µM
Cc1ccc(C(=NN=C(N)N)c2ccc(C)cc2)cc1	0.327 µM	1.33 µM	2.23 µM	18.4 µM	2.2 µM	6.7 µM	0.587 µM	3.38 µM	0.359 µM	1.33 µM	0.415 µM	2.15 µM	2.21 µM	8.69 µM	0.7 µM	16.6 µM	1.69 µM	10.9 µM	0.284 µM	0.945 µM
O=C(c1cccc(O)c1O)c1cn(Cc2ccc(F)cc2)c2cccc(O)c12	5.46 µM	19.4 µM	3.97 µM	17 µM	6.01 µM	19.5 µM	2.58 µM	16.1 µM	2.01 µM	11 µM	3.43 µM	13.4 µM	7.72 µM	21.6 µM	9.3 µM	> 54.4 µM	15.9 µM	43.8 µM	5.65 µM	> 46.5 µM
CC(=O)OC1Oc2ccccc2-c2oc(=O)c(-c3cc4ccc(N(C)C)cc4oc3=O)cc21 (centres undefined)	13.7 µM	30.6 µM	13.1 µM	36 µM	19.9 µM	56.4 µM	10.4 µM	23 µM	11.8 µM	33.1 µM	17.9 µM	66.1 µM	3.67 µM	20.7 µM	1.78 µM	22.2 µM	11.2 µM	28.3 µM	4.57 µM	21 µM
CCS(=O)(=O)c1ccc(OC)c(Nc2ncc(-c3cccc(OC)c3)o2)c1	1.06 µM	> 25 µM	12 µM	> 25 µM	> 20.6 µM	> 25 µM	6.12 µM	24.8 µM	11.9 µM	> 25 µM	14.6 µM	> 25 µM	14.6 µM	> 25 µM	18.9 µM	> 25 µM	4.65 µM	> 23.6 µM	9.72 µM	> 25 µM
